From patent US11629105B2, “Plant treatment composition” (Croda International Plc, priority 2016, dated 2023)
Like-named read-outs stand apart in the source and are kept apart here. One block for each compound: values may come before it.

Key:
[1] = Method: The solubility of other substituted ureas and substituted thioureas was tested in this solvent.
[2] = Stability of emulsion of urea derivative solution with ATLOX 4991; type: physicochemical
[3] = Water solubility of solvents (OECD 105); type: physicochemical; conditions: solvent in water; for solubility: water, thermodynamic from solid
[4] = Solvent screening for ability to dissolve diphenyl urea (DPU); type: physicochemical; conditions: solubility of diphenyl urea (DPU) in the named solvent
[5] = 2% w/w urea derivative in AGNIQUE AMD10

Structure (SMILES): CCN(C(=O)N(CC)c1ccccc1)c1ccccc1 [1,3-diethyl-1,3-diphenyl urea]
Fully Soluble in AGNIQUE AMD10? (2% w/w urea derivative) [1, 5]: Yes
Emulsion with ATLOX 4991 stable? (4 wks ambient) [2]: Yes

Fully Soluble in AGNIQUE AMD10? (2% w/w urea derivative) [1]: Yes
Emulsion with ATLOX 4991 stable? (4 wks ambient) [2]: Yes
Structure (SMILES): CCNC(=O)NCC [1,3-diethylurea]

solubility [3]: < 2000 µg/mL
Structure (SMILES): CCCCCCCCCCCCN1CCCC1=O [1-Dodecyl-2-pyrrolidone, 1-dodecyl-2-pyrrolidone]

Water solubility (OECD 105) [3]: 574 µg/mL
solubility [3]: < 1000 µg/mL
Structure (SMILES): CCCCCCCCCC(=O)N(C)C [AGNIQUE ® AMD10, Capric acid dimethylamide]

DPU Solubility comments [4]: Effectively insoluble
Structure (SMILES): CCCCCCCC(=O)OC [AGNIQUE ® ME890, Methyl octanoate]

DPU Solubility comments [4]: Effectively insoluble
Structure (SMILES): CCCCOC(=O)CCCCC(=O)OCCCC [CETIOL ® B, Dibutyladipate]

DPU Solubility comments [4]: Effectively insoluble
Structure (SMILES): CC(O)COc1ccccc1 (stereo not drawn) [DOWANOL ™ PPh, 1-phenoxypropan-2-ol]

DPU Solubility comments [4]: Effectively insoluble
Structure (SMILES): CCCCOC(C)COC(C)COC(C)CO (stereo not drawn) [DOWANOL ™ TPnB, Tripropylene glycol n-Butyl ether]

Structure (SMILES): O=C(NCO)NCO [N,N′-bis(hydroxymethyl) urea]
Fully Soluble in AGNIQUE AMD10? (2% w/w urea derivative) [1]: No
solubility in AGNIQUE AMD10 [1]: < 2 % w/w

Fully Soluble in AGNIQUE AMD10? (2% w/w urea derivative) [1]: Yes
Emulsion with ATLOX 4991 stable? (4 wks ambient) [2]: Yes
Structure (SMILES): CCCCNC(=S)NCCCC [N,N′-dibutylthiourea]

Fully Soluble in AGNIQUE AMD10? (2% w/w urea derivative) [1, 5]: No
Structure (SMILES): O=C(NC1CCCCC1)NC1CCCCC1 [N,N′-dicyclohexyl urea]

Fully Soluble in AGNIQUE AMD10? (2% w/w urea derivative) [1]: No
solubility in AGNIQUE AMD10 [1]: < 2 % w/w
Structure (SMILES): O=C1NCCCN1 [N,N′-trimethylene urea]

solubility [3]: < 2000 µg/mL
Structure (SMILES): CCCCCCCCN1CCCC1=O [N-octylpyrrolidone]

Fully Soluble in AGNIQUE AMD10? (2% w/w urea derivative) [1]: Yes
Emulsion with ATLOX 4991 stable? (4 wks ambient) [2]: Yes
Structure (SMILES): NC(=O)Nc1ccccc1 [N-phenyl urea]
